According to PMC3094704, “S-Petasin, the Main Sesquiterpene of Petasites formosanus, Inhibits Phosphodiesterase Activity and Suppresses Ovalbumin-Induced Airway Hyperresponsiveness” (Evidence-based Complementary and Alternative Medicine : eCAM, 2011):
Structures can show the parent of a compound that is named as a salt.

Columns and labels:
[1] = target: T1, PDE2 (Cavia porcellus, UniProt A0A286XUV5); assay: Inhibition of PDE2 activity (two-step radioenzymatic assay); type: biochemical, guinea pig; conditions: mean ± SEM (n); read-out: IC50 on PDE isozyme 2
T1 sequence (A0A286XUV5 22-936): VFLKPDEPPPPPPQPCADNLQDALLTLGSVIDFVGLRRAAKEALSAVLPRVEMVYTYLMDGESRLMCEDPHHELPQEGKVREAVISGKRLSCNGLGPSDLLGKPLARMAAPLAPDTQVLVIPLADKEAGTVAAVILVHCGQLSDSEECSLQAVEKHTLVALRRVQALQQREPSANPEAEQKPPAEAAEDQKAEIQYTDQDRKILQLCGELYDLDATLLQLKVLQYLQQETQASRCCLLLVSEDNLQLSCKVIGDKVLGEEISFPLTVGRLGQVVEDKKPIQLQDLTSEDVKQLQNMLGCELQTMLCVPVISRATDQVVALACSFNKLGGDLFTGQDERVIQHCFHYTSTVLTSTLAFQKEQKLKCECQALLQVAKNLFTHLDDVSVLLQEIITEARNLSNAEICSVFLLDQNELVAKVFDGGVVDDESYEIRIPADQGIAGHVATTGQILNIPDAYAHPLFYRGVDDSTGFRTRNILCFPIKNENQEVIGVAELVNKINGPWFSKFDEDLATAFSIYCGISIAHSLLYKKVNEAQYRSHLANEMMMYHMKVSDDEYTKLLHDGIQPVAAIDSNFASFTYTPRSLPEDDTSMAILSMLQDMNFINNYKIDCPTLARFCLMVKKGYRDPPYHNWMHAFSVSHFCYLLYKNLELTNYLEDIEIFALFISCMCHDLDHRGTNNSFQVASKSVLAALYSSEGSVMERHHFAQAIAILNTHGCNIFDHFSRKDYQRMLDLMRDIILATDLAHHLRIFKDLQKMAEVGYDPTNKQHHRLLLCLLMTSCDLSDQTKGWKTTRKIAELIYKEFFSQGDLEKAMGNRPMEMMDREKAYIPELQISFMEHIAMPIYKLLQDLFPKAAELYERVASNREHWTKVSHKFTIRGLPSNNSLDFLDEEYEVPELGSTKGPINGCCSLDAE
Procedure: Activities of PDE1–5, partially separated from guinea pig lungs and hearts according to the method described by Ko et al., were measured with a two-step procedure according to the method of Thompson and Appleman, using cAMP with [^3H]-cAMP or cGMP with [^3H]-cGMP as substrates. The enzyme pμreparation (25 μL) was incubated for 30 min at 37°C in a total assay volume of […] containing 50 mM Tris-HCl (pH 7.4), 3 mM MgCl2, 1 mM dithiothreitol, 0.05% BSA, 1 μM cAMP with 0.2 μCi [^3H]-cAMP as a substrate alone or in the presence of 0.1 units calmodulin with 10 μM CaCl2 or 5 μM cGMP, and 1 μM cGMP with 0.2 μCi [^3H]-cGMP as another substrate alone or in the presence of 0.1 units calmodulin with 10 μM CaCl2. […] The reagents and homogenate were mixed on ice, and the reaction was initiated by transferring the mixture to a water bath at 37°C. Following a 30-min incubation, the reaction was stopped by transferring the reaction vessel to a bath of boiling water for 3 min. After cooling on ice, 20 μL of a 1 mg/mL solution of C. atrox snake venom was added to the reaction mixture, and the mixture was incubated at 37°C for 10 min. Unreacted [^3H]-cAMP or [^3H]-cGMP was removed by the addition of 500 μL of a 1-in-1 Tris-HCl (40 mM) buffer suspension of Dowex resin (1 × 8-200) with incubation on ice for 30 min. […]

[2] = tested on: isolated sensitized guinea pig trachea; assay: OVA-induced tracheal contractions and baseline tension in vitro
Procedure: Male Hartley guinea pigs (500–600 g) were sensitized by intramuscular injections of 0.7 mL of 5% (w/v) OVA in saline on Days 1, 4 and 43, and in adjuvant on Days 25 and 39 into each thigh, according to a method described by Underwood et al. and modified by us. Three days after the last injection, sensitized guinea pigs were sacrificed by cervical dislocation, and their tracheas removed. Each trachea was cut into six segments. Each segment consisted of three cartilage rings. All segments were cut open opposite the trachealis. […] Tissues were suspended in normal Krebs solution under an initial tension of 1.5 g and allowed to equilibrate for at least 1 h with washing at 15-min intervals. After the tissues were precontracted with KCl (60 mM) and washed with normal Krebs solution, OVA (0.1–100 μg/mL) was cumulatively added, and contractions were allowed to reach a steady state at each concentration. […] Therefore, the log concentration-response curves of OVA were constructed in the absence and presence of S-petasin. The tension of the precontraction induced by KCl was set as 100%.

[3] = target: PDE4; assay: Inhibition of PDE4 activity and Lineweaver-Burk analysis; type: biochemical, guinea pig
Procedure: Activities of PDE1–5, partially separated from guinea pig lungs and hearts according to the method described by Ko et al., were measured with a two-step procedure according to the method of Thompson and Appleman, using cAMP with [^3H]-cAMP or cGMP with [^3H]-cGMP as substrates. The enzyme pμreparation (25 μL) was incubated for 30 min at 37°C in a total assay volume of […] containing 50 mM Tris-HCl (pH 7.4), 3 mM MgCl2, 1 mM dithiothreitol, 0.05% BSA, 1 μM cAMP with 0.2 μCi [^3H]-cAMP as a substrate alone or in the presence of 0.1 units calmodulin with 10 μM CaCl2 or 5 μM cGMP, and 1 μM cGMP with 0.2 μCi [^3H]-cGMP as another substrate alone or in the presence of 0.1 units calmodulin with 10 μM CaCl2. In tests of enzyme inhibition, the reaction mixture contained 10 μL of vehicle or inhibitors, at various concentrations of S-petasin or selective PDE1–5 inhibitors, such as vinpocetin [22], EHNA [23], milrinone, Ro 20-1724 [25] and zaprinast, as reference drugs. The reagents and homogenate were mixed on ice, and the reaction was initiated by transferring the mixture to a water bath at 37°C. Following a 30-min incubation, the reaction was stopped by transferring the reaction vessel to a bath of boiling water for 3 min. After cooling on ice, 20 μL of a 1 mg/mL solution of C. atrox snake venom was added to the reaction mixture, and the mixture was incubated at 37°C for 10 min. Unreacted [^3H]-cAMP or [^3H]-cGMP was removed by the addition of 500 μL of a 1-in-1 Tris-HCl (40 mM) buffer suspension of Dowex resin (1 × 8-200) with incubation on ice for 30 min. Each tube was then centrifuged for 2 min at 3700 g, and 150 μL of the supernatant was removed for liquid scintillation counting. Less than 10% of the tritiated cyclic nucleotide was hydrolyzed in this assay. The total protein in each fraction used was assayed according to the method described by Bradford. The PDE activities are shown as nmol/mg/min in the Lineweaver-Burk analysis.

[4] = tested on: high-affinity rolipram binding sites (HARBSs) of guinea pig brain cell membranes; assay: Displacement of [3H]-rolipram (PDE4H determination)
Procedure: When the above-described guinea pigs were sacrificed, the whole brains were removed and homogenized with a glass/Teflon homogenizer (Glas-Col, Terre Haute, IN, USA) in 10 volumes of cold medium (pH 6.5) containing 20 mM Bis-Tris, 2 mM benzamidine, 2 mM EDTA, 50 mM sodium chloride, 0.1 mM PMSF and 1 mM dithiothreitol. At 4°C, the homogenate was centrifuged at 170 g for 5 min to remove connective tissues and blood vessels. The suspended homogenate was then re-centrifuged at 40 000 g for 30 min to separate the cytosolic and particulate portions. The particulate portion was re-suspended in a suspension at a concentration of 400 mg/mL (wet weight/volume), after washing three times with homogenizing buffer. The particulate portion mainly consisted of cell membranes. The binding ability of S-petasin (3–300 μM) or Ro 20-1724 (1–10,000 nM), a reference drug, to high-affinity rolipram binding sites (HARBSs) of the membranes was determined by replacing 2 nM [^3H]-rolipram in a reaction buffer at 30°C for 1 h, according to the method described by previous investigators and modified by us. Briefly, the reaction buffer consisted of 50 mM Tris-HCl and 5 mM MgCl2 (pH 7.5). The total volume of the reaction mixture was 25 μL, consisting of 10 μL of particulate suspension, 10 μL of [^3H]-rolipram and 5 μL of S-petasin or Ro 20-1724. After 1 h, the reaction was terminated by moving the reaction vessel into crushed ice. Then the reaction mixture was transferred onto Whatman GF/B glass-fiber filters, which were soaked in a 0.3% polyethyleneimine solution in a mini-funnel. The reaction mixture was filtered by centrifuging at 90 g for 10 s, and the filtrate was collected into a 1.5 mL Eppendorf tube with a top adapted to the outlet of the mini-funnel. The filters were washed with 300 μL of reaction buffer three times each in the same way, and transferred into 2 mL of cocktail for radiation counting (total binding) using a β-scintillation counter (Beckman, Fullerton, CA, USA). Non-specific binding, which was defined in the presence of 10 μM Ro 20-1724, was subtracted from the total binding to yield the specific binding. The effective concentration (EC50) values of S-petasin and Ro 20-1724, at which a half of [^3H]-rolipram bound onto HARBSs of cell membranes was displaced, were defined as the PDE4H values, and these were related to any adverse effects, such as nausea, vomiting and gastric hypersecretion.

[5] = target: PDE3; assay: Inhibition of PDE3 activity and Lineweaver-Burk analysis; type: biochemical, guinea pig
Procedure: Activities of PDE1–5, partially separated from guinea pig lungs and hearts according to the method described by Ko et al., were measured with a two-step procedure according to the method of Thompson and Appleman, using cAMP with [^3H]-cAMP or cGMP with [^3H]-cGMP as substrates. The enzyme pμreparation (25 μL) was incubated for 30 min at 37°C in a total assay volume of […] containing 50 mM Tris-HCl (pH 7.4), 3 mM MgCl2, 1 mM dithiothreitol, 0.05% BSA, 1 μM cAMP with 0.2 μCi [^3H]-cAMP as a substrate alone or in the presence of 0.1 units calmodulin with 10 μM CaCl2 or 5 μM cGMP, and 1 μM cGMP with 0.2 μCi [^3H]-cGMP as another substrate alone or in the presence of 0.1 units calmodulin with 10 μM CaCl2. […] The reagents and homogenate were mixed on ice, and the reaction was initiated by transferring the mixture to a water bath at 37°C. Following a 30-min incubation, the reaction was stopped by transferring the reaction vessel to a bath of boiling water for 3 min. After cooling on ice, 20 μL of a 1 mg/mL solution of C. atrox snake venom was added to the reaction mixture, and the mixture was incubated at 37°C for 10 min. Unreacted [^3H]-cAMP or [^3H]-cGMP was removed by the addition of 500 μL of a 1-in-1 Tris-HCl (40 mM) buffer suspension of Dowex resin (1 × 8-200) with incubation on ice for 30 min. Each tube was then centrifuged for 2 min at 3700 g, and 150 μL of the supernatant was removed for liquid scintillation counting. […] The total protein in each fraction used was assayed according to the method described by Bradford. The PDE activities are shown as nmol/mg/min in the Lineweaver-Burk analysis.

CCCCCC[C@@H]([C@@H](C)O)n1cnc2c(N)ncnc21 (racemic) [EHNA, erythro-9-(2-hydroxy-3-nonyl)-adenine HCl]
IC50 [1]: 6500 ± 1000 nM

CCCCOc1cc(CC2CNC(=O)N2)ccc1OC (stereo not drawn) [Ro 20-1724, 4-(3-butoxy-4-methoxybenzyl)-2-imidazolidinone, reference compound]
OVA (10 μg/mL)-induced contractions ([2]; 30 μM): significantly inhibited
Baseline tension ([2]; 3–30 μM): concentration-dependently and significantly relaxed
OVA (10–100 μg/mL)-induced contractions ([2]; 10–30 μM): concentration-dependently inhibited
Ki ([3]; Lineweaver-Burk analysis, cAMP substrate, read-out: Ki on PDE isozyme 4): 4200 ± 700 nM
Mode of inhibition of PDE4 activity ([3]; Lineweaver-Burk analysis, S-petasin 3–30 μM, Ro 20-1724 1–10 μM): competitively inhibited
IC50 ([3]; mean ± SEM (n), read-out: IC50 on PDE isozyme 4 (taken as PDE4L value)): 6900 ± 600 nM
EC50 ([4]; HARBSs of guinea pig brain cell membranes): 95.8 ± 13.6 nM
percentage displacement of [3H]-rolipram binding ([4]; at the highest concentration (10 000 nM), 2 nM [3H]-rolipram): 100%±2.1%

Cc1[nH]c(=O)c(C#N)cc1-c1ccncc1 [milrinone, reference compound]
Ki ([5]; Lineweaver-Burk analysis, cAMP substrate, read-out: Ki on PDE isozyme 3): 1600 ± 200 nM
Mode of inhibition of PDE3 activity ([5]; Lineweaver-Burk analysis, S-petasin 3–30 μM, milrinone 0.3–3 μM): competitively inhibited
IC50 ([5]; mean ± SEM (n), read-out: IC50 on PDE isozyme 3): 1500 ± 200 nM
